In data set [1] the test system is RAW264.7. The data set is described as follows: Antiinflammatory activity in mouse RAW264.7 cells assessed as inhibition of LPS-induced NO production at 40 uM preincubated for 30 mins measured 24 hrs post LPS challenge by Griess method. It is filed as functional.
Another data set relates to HEK293. The data set is described as follows: Inhibition of TNF-alpha activated NF-kappaB expressed in HEK293 cells at 50 uM by luciferase reporter gene assay. It is filed as cell-based. In general terms: A reporter such as luciferase makes a cellular process visible.
The target of data set [2] is NAD(P)H dehydrogenase [quinone] 1 (Mus musculus) (UniProt Q64669). The data set is described as follows: Induction of QR1 in mouse Hepa-1c1c7 cells assessed as induction ratio at 50 uM by MTT assay. It is filed as cell-based.
Sequence of NAD(P)H dehydrogenase [quinone] 1 (Mus musculus) (Q64669 whole entry): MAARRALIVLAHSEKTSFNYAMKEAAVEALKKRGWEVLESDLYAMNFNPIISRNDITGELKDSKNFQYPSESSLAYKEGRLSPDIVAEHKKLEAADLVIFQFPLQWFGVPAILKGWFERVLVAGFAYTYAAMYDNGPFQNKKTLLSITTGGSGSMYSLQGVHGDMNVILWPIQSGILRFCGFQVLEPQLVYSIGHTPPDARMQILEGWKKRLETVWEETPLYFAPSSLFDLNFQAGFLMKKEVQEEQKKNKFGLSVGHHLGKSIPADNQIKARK
In data set [3] the target is T1, Aromatase (Homo sapiens, UniProt P11511).
T1 sequence (P11511 whole entry): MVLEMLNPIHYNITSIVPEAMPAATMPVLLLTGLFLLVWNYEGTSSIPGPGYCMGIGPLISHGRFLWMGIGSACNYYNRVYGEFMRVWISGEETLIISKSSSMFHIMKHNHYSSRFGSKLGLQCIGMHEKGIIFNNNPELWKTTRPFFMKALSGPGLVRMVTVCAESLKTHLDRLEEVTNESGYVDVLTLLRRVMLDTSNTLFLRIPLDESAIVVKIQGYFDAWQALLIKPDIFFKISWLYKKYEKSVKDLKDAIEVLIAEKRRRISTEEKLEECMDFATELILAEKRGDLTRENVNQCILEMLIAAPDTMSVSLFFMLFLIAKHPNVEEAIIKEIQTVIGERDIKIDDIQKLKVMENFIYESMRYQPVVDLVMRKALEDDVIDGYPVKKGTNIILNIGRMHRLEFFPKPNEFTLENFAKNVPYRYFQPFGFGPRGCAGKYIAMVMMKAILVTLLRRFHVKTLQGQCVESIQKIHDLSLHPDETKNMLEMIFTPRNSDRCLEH

Data set [4] addresses T1, Aromatase. This is another data set of the same source.
Data set [5] has as its target NAD(P)H dehydrogenase [quinone] 1 (Mus musculus) (UniProt Q64669). The data set is described as follows: Induction of QR1 in mouse Hepa-1c1c7 cells assessed as concentration required to double QR1 induction by MTT assay. It is filed as cell-based. In general terms: Tetrazolium dyes change colour on reduction, which living cells bring about.
The target in data set [6] is T2, Nitric oxide synthase, inducible (Mus musculus, UniProt P29477).
T2 sequence (P29477 whole entry): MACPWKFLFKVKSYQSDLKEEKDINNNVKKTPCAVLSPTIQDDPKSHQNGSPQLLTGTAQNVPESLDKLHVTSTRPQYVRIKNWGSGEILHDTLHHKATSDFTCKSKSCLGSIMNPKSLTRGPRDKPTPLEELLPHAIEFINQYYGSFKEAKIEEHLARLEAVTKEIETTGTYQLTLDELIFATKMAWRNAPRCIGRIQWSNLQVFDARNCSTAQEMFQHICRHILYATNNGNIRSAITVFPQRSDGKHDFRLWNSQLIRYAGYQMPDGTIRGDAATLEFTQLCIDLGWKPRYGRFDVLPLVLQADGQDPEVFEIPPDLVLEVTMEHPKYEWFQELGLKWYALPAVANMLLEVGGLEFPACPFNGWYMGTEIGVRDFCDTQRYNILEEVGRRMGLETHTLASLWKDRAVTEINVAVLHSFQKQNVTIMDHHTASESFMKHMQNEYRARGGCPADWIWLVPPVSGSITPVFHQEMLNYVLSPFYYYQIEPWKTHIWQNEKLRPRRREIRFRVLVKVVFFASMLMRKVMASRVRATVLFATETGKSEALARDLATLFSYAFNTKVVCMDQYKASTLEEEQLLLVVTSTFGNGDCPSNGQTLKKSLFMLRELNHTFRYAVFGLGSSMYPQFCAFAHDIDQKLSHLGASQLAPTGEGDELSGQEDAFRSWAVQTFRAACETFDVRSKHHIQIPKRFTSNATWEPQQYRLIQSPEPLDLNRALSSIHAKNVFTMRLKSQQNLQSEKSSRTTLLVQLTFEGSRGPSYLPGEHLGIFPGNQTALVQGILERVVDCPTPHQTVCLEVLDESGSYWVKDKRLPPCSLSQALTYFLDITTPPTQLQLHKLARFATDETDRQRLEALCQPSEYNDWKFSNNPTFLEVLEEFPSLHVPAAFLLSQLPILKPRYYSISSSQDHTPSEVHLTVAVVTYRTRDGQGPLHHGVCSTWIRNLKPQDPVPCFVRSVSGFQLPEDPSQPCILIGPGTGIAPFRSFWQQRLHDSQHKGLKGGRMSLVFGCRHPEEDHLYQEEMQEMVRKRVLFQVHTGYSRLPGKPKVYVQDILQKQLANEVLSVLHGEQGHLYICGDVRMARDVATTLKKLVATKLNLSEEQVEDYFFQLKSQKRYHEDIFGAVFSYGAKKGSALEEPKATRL
Description: Inhibition of iNOS in LPS-stimulated mouse RAW264.7 cells after 18 hrs

Another data set concerns MCF7. The data set is described as follows: cells. Particulars: Homo sapiens; call rule not given here.
Data set [7] in a line: Inhibition of TNF-alpha activated NF-kappaB expressed in HEK293 cells by luciferase reporter gene assay. It is filed as cell-based.
The target of data set [8] is T1, Aromatase. Kind of data set: Inhibition of human aromatase using dibenzylfluorescein substrate at 20 uM after 30 mins by fluorescence assay. The note with it: 0.5 h.
Data set [9] has as its system RAW264.7. Kind of data set: Antiinflammatory activity in mouse RAW264.7 cells assessed as inhibition of LPS-induced NO production preincubated for 30 mins measured 24 hrs post LPS challenge by Griess method. It is filed as functional, cell-based. (In general: Griess reagent forms a coloured azo dye with nitrite.)

SMILES strings stand for the structures.

Description for MCF7: Cytotoxicity against human MCF7 cells by SRB assay

Turning to `COc1ccc(-c2csc(-c3cccnc3)n2)cn1`, the inhibition at 40 µM in the data set on RAW264.7 [1] turned out to be 16.3%.
Take `Fc1ccc(-c2nc(-c3cccnc3)cs2)cc1`: in the data set on RAW264.7 [1], the inhibition at 40 µM turned out to be 54.6%. Besides, in the data set on HEK293, the inhibition stood at 28.8%.
As for `COc1ccc(-c2csc(-c3ccncc3)n2)cn1`, the inhibition at 40 µM with RAW264.7 [1] is 32.1%. In addition, the inhibition in the data set with HEK293 came out at 6%.
As to `Brc1cccc(-c2nc(-c3cccnc3)ns2)c1`, in data set [2], the Ratio is 9.2. The inhibition with HEK293 worked out at 12.9%. For the same compound, half-maximal inhibition at Aromatase [3] (IC50) required 6.73 µM. At Aromatase [4], this compound had a Ki of 1.16 µM. Moreover, in data set [5], the CD worked out at 0.06 µM.
Take `Oc1ccc(/C=C/c2cc(O)cc(O)c2)cc1` [RESVERATROL]: the values for the 50% inhibitory concentration (IC50) (in [6]; in the data set with MCF7) were 23.2 µM and 87.6 µM, respectively.
Regarding `Brc1ccc(-c2nc(-c3cccnc3)cs2)cc1`, the inhibition at 40 µM with RAW264.7 [1] stood at 72.5%. The Ratio in [2] came to 4.27. Besides, the inhibition in the data set on HEK293 turned out to be 46.8%. Moreover, the results for the 50% inhibitory concentration (IC50) (against Aromatase [3]; in [7]) were 7.92 µM and 19.9 µM, respectively. In addition, the Ki on Aromatase [4] was 1.72 µM. Besides, the CD in data set [5] is 32.8 µM.
Take `Oc1ccc(-c2nc(-c3cccnc3)cs2)cc1`: the inhibition at 40 µM with RAW264.7 [1] worked out at 35.7%. Moreover, the Ratio in [2] was found to be 0.87. For the same compound, in the data set on HEK293, the inhibition turned out to be 52.9%. At Aromatase [3], the IC50 is 11.2 µM. The compound also displayed an inhibition constant (Ki) on Aromatase [4] of 2.55 µM.
On to `COc1cccc(-c2nc(-c3cccnc3)ns2)c1`, for which the inhibition with HEK293 amounted to 22.4%. Also, in data set [5], the CD worked out at 0.08 µM.
Regarding `Brc1ccc(-c2csc(-c3ccncc3)n2)cn1`, the inhibition at 40 µM in the data set on RAW264.7 [1] turned out to be 8.6%. Besides, the Ratio in data set [2] was found to be 1.5. In addition, 2.68 µM corresponded to half-maximal inhibition against Aromatase [3] (IC50). Moreover, at Aromatase [8], the “inhibition (INH)” value was “Active”. Moreover, at Aromatase [4], the inhibition constant (Ki) turned out to be 0.285 µM.
On to `Clc1cc(-c2nc(-c3cccnc3)cs2)ccn1`, for which the inhibition at 40 µM in the data set on RAW264.7 [1] was -5.2%.
Turning to `Clc1ccc(-c2nc(-c3cccnc3)cs2)cc1`, the inhibition at 40 µM in the data set with RAW264.7 [1] is 76.3%. In the data set on HEK293, the inhibition was determined as 54%. The compound further returned a half-inhibitory concentration (IC50) in [7] of 10.3 µM. Also, in data set [5], the CD was 32 µM.
For `c1cncc(-c2csc(-c3ccncc3)n2)c1`, the inhibition with HEK293 was found to be 68.8%. The compound further displayed an IC50 in [7] of 2.55 µM.
As for `CCOc1ccc(-c2csc(-c3ccncc3)n2)cn1`, the inhibition at 40 µM in the data set on RAW264.7 [1] is 28.1%. Further, the Ratio in data set [2] was found to be 1.1. Also, the inhibition in the data set on HEK293 is -2.4%. The midpoint of inhibition at Aromatase [3], the IC50, lay at 1.36 µM. At Aromatase [8], the “inhibition (INH)” value is “Active”. In addition, the affinity at Aromatase [4], expressed as Ki, was 0.1 µM.
As to `COc1cc(-c2nc(-c3cccnc3)cs2)ccn1`, the inhibition at 40 µM in the data set on RAW264.7 [1] amounted to 54.7%. Also, the Ratio in data set [2] amounted to 0.7. The inhibition in the data set with HEK293 was -4.9%. In addition, the IC50 in the data set on RAW264.7 [9] was determined as 47.8 µM; against Aromatase [3], 0.023 µM. Besides, the inhibition constant (Ki) at Aromatase [4] was 0.00065 µM.
As for `Brc1ccc(-c2csc(-c3cccnc3)n2)cn1`, the inhibition at 40 µM in the data set on RAW264.7 [1] is 22.7%. The Ratio in data set [2] worked out at 5.1. Besides, in the data set on HEK293, the inhibition came to 16.4%. The compound further showed a half-maximal inhibitory concentration (IC50) at Aromatase [3] of 7.41 µM. Besides, on Aromatase [8], the “inhibition (INH)” value is on record as “Active”. For the same compound, the affinity on Aromatase [4] corresponds to a Ki of 1.48 µM. In data set [5], the CD stood at 20.1 µM.
Consider `c1ccc(-c2nc(-c3cccnc3)cs2)cc1`, for which the inhibition at 40 µM in the data set with RAW264.7 [1] came out at 60.1%. The Ratio in [2] was 1.45. For the same compound, the inhibition with HEK293 was determined as 50.3%. Besides, the figures for the IC50 (against Aromatase [3]; in data set [7]) were 0.9 µM and 17.7 µM, respectively. For the same compound, affinity on Aromatase [4] was put at a Ki of 0.0634 µM.
On to `COc1ccc(-c2nc(-c3cccnc3)cs2)cc1`, for which the inhibition at 40 µM with RAW264.7 [1] amounted to 48.3%. Moreover, the Ratio in data set [2] is 1.1. In addition, the inhibition with HEK293 was found to be 59.9%. In addition, at Aromatase [3], the IC50 turned out to be 18 µM. The compound also registered a Ki on Aromatase [4] of 15 µM.

The term inhibition denotes the relative decrease from the control value, in per cent. A word on the IC50: it is the concentration that inhibits the measured activity by half. For orientation: Ki means the equilibrium dissociation constant of an inhibitor or competing ligand from its target.

These data come from ChEMBL document CHEMBL1955720 (Bioorg Med Chem, 2012).
